Source: US10000521B2 (priority 2013, dated 2018)
Entries after “also recorded” stand apart in the source; their conditions may differ.

Key:
[1] = Stability test at different pH conditions (HPLC); type: physicochemical
Protocol: HPLC analysis: 100 μl of the incubated solution was loaded onto a Vydac C18 analytical column 4.6/250, and the mobile phase run at 1 mL/min water with the following procedures: a. Inject 100 μl the incubated solution; b. Water for 5 minutes at 1 ml/min; c. 0-100% acetonitrile over 30 minutes; d. Back to 100% water.
Analysis: Standard HPLC analysis software was used to quantitate the area under each peak. Degradation peaks were quantitated as a percentage of the peak of the same amount of control sample (no heat treatment).

[2] = In vivo pharmacokinetic assessment (LC-MS/MS, plasma and liver); settings: mice, oral
Protocol: All pharmacokinetic studies were performed with CD-1 ICR mice (female, 4-6 week old; 20-30 gram body weight), and three mice were used at each dose level and at each time point for each compound tested. […] Tetrahydrouridine (THU) was immediately added to plasma samples at a final concentration of 25 μg/mL to prevent deamination of dFdC after collection, and the samples were subsequently flash-frozen and stored at −80° C. until analysis. Approximately 200-300 mg of each mouse liver was dissected and homogenized in 150 μL of phosphate buffered saline (PBS) containing 25 μg/mL THU, resulting in 2 mg liver/μL saline homogenate. These liver homogenates were also flash-frozen and stored at −80° C. until analysis. Equivalent amounts of blood plasma and liver tissue were also collected from untreated mice and used to prepare calibration standards and quality controls. An LC-MS/MS assay was utilized to simultaneously quantify the concentrations of compound 1, dFdC and dFdU in each of the plasma and liver samples.

[3] = test system: Huh7 cells; assay: TC50 assay with inhibition of ENT1, Huh7 cells; type: cell-based; settings: Homo sapiens, Huh-7, 48 h, Huh7 cells (48 h)
Protocol: Plating Cells: Huh7 cells or PK9 cells were seeded in 96-well plates at a density of 5,000 cells/well or 2,500 cells/well, respectively, and the plates were incubated at 37° C. for 24 h to allow for cell attachment.
Treatment with equilibrative nucleoside transporter 1 (ENT1) Inhibitor: The media was then removed from the plates and replaced with media containing 2% FBS, 0.5% DMSO, and either 10 μM dipyramidole or 10 μM S-(4-nitrobenzyl)-6-thioinosine (NBTI).
Treating with Control & Compound 1: After incubation with the ENT1 inhibitor, the cells were treated with each compound at final concentrations ranging from 500 μM to 0 μM in triplicate in media containing 2% FBS, 0.5% DMSO, and either 10 μM dipyridamole or 10 μM NBTI.

[4] = test system: Huh7; assay: TC50 assay in different human cell lines (96 h), Huh7; type: cell-based; settings: Huh-7, about 96 h, MTS assay
Protocol: (§1) The 96-well plate with cells incubated with test compound was removed from the 37° C. incubator. The appropriate amounts of the MTS and PMS reagents were removed from the kit and mixed well. The reagents were maintained in the dark due to their light sensitivity. […] The solutions were mixed completely in the wells prior to each reading.
(§2) Plating Cells: Huh7, HEPG2, HEK293, MCF-7, or BxPC3 cells (which can be obtained from American Type Culture Collection, ATCC) were passaged when they were about 70% confluent. […] The cells following passaging were allowed to attach for about 24 hours at 37° C.
(§3) The plates were then returned to the incubator, and cells incubated for about 96 h at 37° C.
(§4) MTS Assay: Assay was carried out as described above.

[5] = test system: BxPC3; assay: TC50 assay in different human cell lines (96 h), BxPC3; type: cell-based; settings: BXPC-3, about 96 h, MTS assay
Protocol: as §1, §2, §3, §4

O=C(Nc1ccn(C2O[C@H](CO)[C@@H](O)C2(F)F)c(=O)n1)c1ccc2c(c1)OCO2 (stereo partly drawn) [Compound 1, N-(1-((4R,5R)-3,3-difluoro-4-hydroxy-5-(hydroxymethyl)tetrahydrofuran-2-yl)-2-oxo-1,2-dihydropyrimidin-4-yl)benzo[d][1,3]dioxole-5-carboxamide]
Compound remaining (%) ([1]; Pretreatment): 100%
Compound remaining (%) ([1]; pH 1, 40° C., 4 h): 64%
Compound remaining (%) ([1]; pH 2, 40° C., 4 h): 100%
Compound remaining (%) ([1]; pH 4, 40° C., 4 h): 100%
Compound remaining (%) ([1]; pH 6, 40° C., 4 h): 100%
Compound remaining (%) ([1]; pH 8, 40° C., 4 h): 92%
distribution of gemcitabine produced by hydrolysis, liver versus plasma [2]: higher concentration in the liver than in plasma
linearity of dFdC exposure vs. compound 1 dosage ([2]; 1.0-8.0 mg/kg): linear pharmacokinetics
Liver AUCobs of compound 1 ([2]; dose 1.0 mg/kg): 1.10 µmol·min/L
Plasma AUCobs of compound 1 ([2]; dose 1.0 mg/kg): 0.95 µmol·min/L
Plasma AUCobs of dFdC converted from compound 1 ([2]; dose 1.0 mg/kg): 0.26 µmol·min/L
Liver AUCobs of compound 1 ([2]; dose 4.0 mg/kg): 7.84 µmol·min/L
Plasma AUCobs of compound 1 ([2]; dose 4.0 mg/kg): 3.45 µmol·min/L
Plasma AUCobs of dFdC converted from compound 1 ([2]; dose 4.0 mg/kg): 5.03 µmol·min/L
Liver AUCobs of compound 1 ([2]; dose 8.0 mg/kg): 9.53 µmol·min/L
Plasma AUCobs of compound 1 ([2]; dose 8.0 mg/kg): 3.71 µmol·min/L
Plasma AUCobs of dFdC converted from compound 1 ([2]; dose 8.0 mg/kg): 9.45 µmol·min/L
first-pass metabolism to inactive metabolite dFdU ([2]; plasma and liver samples): less of the inactive metabolite dFdU; also recorded: reduced first pass metabolism to the inactive metabolite dFdU
CC50 ([3]; 10 μM NBTI): 440 ± 190 µM
CC50 ([3]; 10 μM dipyridamole): 410 ± 110 µM
CC50 ([3]; ENT1 inhibitor: None): 473 ± 74 µM
CC50 [4]: 7.04 µM
CC50 [5]: 0.72 µM
